The numbers were not newly measured in patent US7217714B1, “CCR5 modulators” (Agouron Pharmaceuticals, Inc., priority 1998, dated 2007), which cites them from elsewhere.

In series [1] the test system is primary HIV isolates.
In series [2] the test system is CXCR4 dependent primary and lab-adapted HIV viruses. Particulars: susceptible cultures.
The subject of series [3] is CCR5-tropic strains. The settings on record: Baba et al. PNAS 1999.

For “SDF-1: "the chemokines RANTES, MIP-1α, MIP-1β, SDF-1 have been shown to suppress replication of primary HIV isolates"”, the “suppression of replication of primary HIV isolates” value (“suppression” for short) in series [1] is “suppress replication”.
Consider `c1cc(CN2CCCNCCNCCCNCC2)ccc1CN1CCCNCCNCCCNCC1` [AMD3100], for which the “inhibition of infection by CXCR4 dependent HIV” value in series [2] is on record as “inhibit infection”.
In the case of `Cc1ccc(-c2ccc3c(c2)C=C(C(=O)Nc2ccc(C[N+](C)(C)C4CCOCC4)cc2)CCC3)cc1.[Cl-]` [TAK 779], in series [3], the “block of entry of CCR5-tropic strains” value is listed as “blocks entry”.

B1: MIP-1β: "the macrophage inflammatory proteins (MIP) designated MIP-1α and MIP-1β" (protein, UniProt P13236 24-92, looked up)
C-C motif chemokine 4: APMGSDPPTACCFSYTARKLPRNFVVDYYETSSLCSQPAVVFQTKRSKQVCADPSESWVQEYVYDLELN
As for B1, in series [1], the “suppression” value was “suppress replication”.

B2: MIP-1α: "the macrophage inflammatory proteins (MIP) designated MIP-1α and MIP-1β" (protein, UniProt P10147 24-92, looked up)
C-C motif chemokine 3: SLAADTPTACCFSYTSRQIPQNFIADYFETSSQCSKPGVIFLTKRSRQVCADPSEEWVQKYVSDLELSA
In the case of B2, in series [1], the “suppression” value is on record as “suppress replication”.

B3: RANTES: "a protein which is regulated upon activation and is normal T-cell expressed and secreted (RANTES)" (protein, UniProt P13501 24-91, looked up)
C-C motif chemokine 5: SPYSSDTTPCCFAYIARPLPRAHIKEYFYTSGKCSNPAVVFVTRKNRQVCANPEKKWVREYINSLEMS
Turning to B3, the “suppression” value in series [1] is recorded as “suppress replication”.
